Key:
[1] = target: ATIC (Sus scrofa); experiment: Inhibition activity against AICAR formyltransferase from hog liver
[2] = target: Trifunctional purine biosynthetic protein adenosine-3 (Mus musculus) (UniProt Q64737); experiment: Inhibition activity against Glycinamide ribonucleotide transformylase (GAR-TFase) from L cell
Chain of Trifunctional purine biosynthetic protein adenosine-3 (Mus musculus) (Q64737 whole entry, looked up): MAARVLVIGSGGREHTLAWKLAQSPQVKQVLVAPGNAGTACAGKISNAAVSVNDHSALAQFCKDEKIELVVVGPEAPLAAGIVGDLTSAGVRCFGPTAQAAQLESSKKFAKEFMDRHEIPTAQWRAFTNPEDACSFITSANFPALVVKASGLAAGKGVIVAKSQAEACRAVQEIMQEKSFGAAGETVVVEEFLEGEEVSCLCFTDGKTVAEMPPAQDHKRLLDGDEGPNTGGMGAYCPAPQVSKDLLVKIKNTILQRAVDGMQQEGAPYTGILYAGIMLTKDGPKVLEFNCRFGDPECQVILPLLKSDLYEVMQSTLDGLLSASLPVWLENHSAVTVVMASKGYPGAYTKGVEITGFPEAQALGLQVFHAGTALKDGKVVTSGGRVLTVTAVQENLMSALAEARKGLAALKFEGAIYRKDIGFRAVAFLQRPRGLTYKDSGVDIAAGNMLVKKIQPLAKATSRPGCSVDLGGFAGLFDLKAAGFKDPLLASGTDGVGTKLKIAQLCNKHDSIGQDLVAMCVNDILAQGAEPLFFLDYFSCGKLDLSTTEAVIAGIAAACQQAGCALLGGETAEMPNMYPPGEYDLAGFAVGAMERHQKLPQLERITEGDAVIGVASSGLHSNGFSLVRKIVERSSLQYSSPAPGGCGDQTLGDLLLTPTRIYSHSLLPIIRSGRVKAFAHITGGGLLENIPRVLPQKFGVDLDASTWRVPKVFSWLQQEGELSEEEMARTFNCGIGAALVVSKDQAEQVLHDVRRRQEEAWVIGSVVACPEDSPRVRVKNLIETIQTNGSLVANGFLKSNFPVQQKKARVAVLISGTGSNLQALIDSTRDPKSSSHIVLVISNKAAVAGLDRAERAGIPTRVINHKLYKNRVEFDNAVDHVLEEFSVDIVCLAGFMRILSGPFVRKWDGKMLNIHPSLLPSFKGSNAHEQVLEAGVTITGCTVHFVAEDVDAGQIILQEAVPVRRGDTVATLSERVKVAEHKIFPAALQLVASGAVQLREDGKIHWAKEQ

`CN(CCCc1c(N)nc(N)[nH]c1=O)c1ccc(C(=O)NC(CCC(=O)O)C(=O)O)cc1` (configuration not stated) showed an IC50 [1] of 68 µM and an IC50 [2] of 4.3 µM.

From BindingDB's records for doi:10.1021/jm00164a014 (Wellcome Research Laboratories, 1990)
